Results: patent US6531148B1, “Therapeutic agents” (Takara Shuzo Co., Ltd., priority 1998, dated 2003)

Columns and labels:
spleen lymphocytes = assay: Lymphocyte activation inhibition test; format: cell-based, mouse; conditions: 3H-thymidine uptake
Source text: A ddY mouse (female, 7 weeks old, weighing about 25 g) was purchased from Nippon SLC and pre-bred for 1 week before using in experiments. A spleen was taken out from the mouse, finely minced and suspended in RPMI-1640 medium containing 10% fetal bovine serum (HyClone) to obtain a single cell suspension. Adhesive cells adhered to a plastic Petri dish were removed and non-adhesive cells were used as spleen lymphocytes. The spleen lymphocytes were suspended in RPMI 1640 medium containing 10% fetal bovine serum at a concentration of 2×10^6/ml. 200 μl of the suspension was seeded into each well of a 96-well microtiter plate. DGE at a varying concentration was added to each well other than the control well. Furthermore, 5 μg of Con A (Nacalai Tesque) was added to each well. The plate was incubated at 37° C. for two days in the presence of 5% CO2. 37 kBq of ^3H-thymidine (Daiichi Pure Chemicals) was added to each well to pulse-label the cells on the day before the completion of the cultivation. After cultivation, the cells were harvested on a glass filter to measure the radioactivity.

α-glucosidase from yeast = assay: α-Glucosidase inhibition test (yeast enzyme); format: biochemical; conditions: for Remaining activity: activity without test sample = 100%; for Absorbance (OD 410 nm): without DGE 0.444
Procedure: (1) The activity of inhibiting α-glucosidase of DGE was measured by reacting p-nitrophenyl-α-D-glucopyranoside, a chromogenic substrate for α-glucosidase, with α-glucosidase from yeast and calorimetrically quatifying 4-nitrophnol released by hydrolysis. Briefly, 10 μl of α-glucosidase solution [40 mU/ml, derived from S. cerevisiae, Sigma, dissolved in 10 mM phosphate buffer (pH 7.2 at 37° C.)] and 10 μl of a solution containing a test sample dissolved in 10 mM phosphate buffer (pH 7.2 at 37° C.) were mixed. 80 μl of a 1.5 mg/ml substrate solution [Sigma, dissolved in 10 mM phosphate buffer (pH 7.2 at 37° C.) was added thereto to initiate the reaction. After reacting at 37° C. for 40 minutes, the absorbance at 410 nm was measured (Shimadzu uv2200). The remaining activity therein was calculated defining the activity without the test sample as 100%.

[1] = target: T1, α-glucosidase from rat small intestine mucous membrane (Rattus norvegicus, UniProt P23739); assay: α-Glucosidase inhibition test (crude enzyme from rat small intestine); format: biochemical; conditions: for relative activity: substrate Sucrose, control without DGE = 100%
T1 construct: relative activity; other: substrate Sucrose, DGE 0.2 mM; control without DGE = 100%; relative activity; other: substrate Sucrose, DGE 0.5 mM; other: substrate Sucrose, DGE 1.0 mM; other: substrate Sucrose, DGE 2.0 mM; other: for sucrose, Dixon
T1 sequence (P23739 whole entry): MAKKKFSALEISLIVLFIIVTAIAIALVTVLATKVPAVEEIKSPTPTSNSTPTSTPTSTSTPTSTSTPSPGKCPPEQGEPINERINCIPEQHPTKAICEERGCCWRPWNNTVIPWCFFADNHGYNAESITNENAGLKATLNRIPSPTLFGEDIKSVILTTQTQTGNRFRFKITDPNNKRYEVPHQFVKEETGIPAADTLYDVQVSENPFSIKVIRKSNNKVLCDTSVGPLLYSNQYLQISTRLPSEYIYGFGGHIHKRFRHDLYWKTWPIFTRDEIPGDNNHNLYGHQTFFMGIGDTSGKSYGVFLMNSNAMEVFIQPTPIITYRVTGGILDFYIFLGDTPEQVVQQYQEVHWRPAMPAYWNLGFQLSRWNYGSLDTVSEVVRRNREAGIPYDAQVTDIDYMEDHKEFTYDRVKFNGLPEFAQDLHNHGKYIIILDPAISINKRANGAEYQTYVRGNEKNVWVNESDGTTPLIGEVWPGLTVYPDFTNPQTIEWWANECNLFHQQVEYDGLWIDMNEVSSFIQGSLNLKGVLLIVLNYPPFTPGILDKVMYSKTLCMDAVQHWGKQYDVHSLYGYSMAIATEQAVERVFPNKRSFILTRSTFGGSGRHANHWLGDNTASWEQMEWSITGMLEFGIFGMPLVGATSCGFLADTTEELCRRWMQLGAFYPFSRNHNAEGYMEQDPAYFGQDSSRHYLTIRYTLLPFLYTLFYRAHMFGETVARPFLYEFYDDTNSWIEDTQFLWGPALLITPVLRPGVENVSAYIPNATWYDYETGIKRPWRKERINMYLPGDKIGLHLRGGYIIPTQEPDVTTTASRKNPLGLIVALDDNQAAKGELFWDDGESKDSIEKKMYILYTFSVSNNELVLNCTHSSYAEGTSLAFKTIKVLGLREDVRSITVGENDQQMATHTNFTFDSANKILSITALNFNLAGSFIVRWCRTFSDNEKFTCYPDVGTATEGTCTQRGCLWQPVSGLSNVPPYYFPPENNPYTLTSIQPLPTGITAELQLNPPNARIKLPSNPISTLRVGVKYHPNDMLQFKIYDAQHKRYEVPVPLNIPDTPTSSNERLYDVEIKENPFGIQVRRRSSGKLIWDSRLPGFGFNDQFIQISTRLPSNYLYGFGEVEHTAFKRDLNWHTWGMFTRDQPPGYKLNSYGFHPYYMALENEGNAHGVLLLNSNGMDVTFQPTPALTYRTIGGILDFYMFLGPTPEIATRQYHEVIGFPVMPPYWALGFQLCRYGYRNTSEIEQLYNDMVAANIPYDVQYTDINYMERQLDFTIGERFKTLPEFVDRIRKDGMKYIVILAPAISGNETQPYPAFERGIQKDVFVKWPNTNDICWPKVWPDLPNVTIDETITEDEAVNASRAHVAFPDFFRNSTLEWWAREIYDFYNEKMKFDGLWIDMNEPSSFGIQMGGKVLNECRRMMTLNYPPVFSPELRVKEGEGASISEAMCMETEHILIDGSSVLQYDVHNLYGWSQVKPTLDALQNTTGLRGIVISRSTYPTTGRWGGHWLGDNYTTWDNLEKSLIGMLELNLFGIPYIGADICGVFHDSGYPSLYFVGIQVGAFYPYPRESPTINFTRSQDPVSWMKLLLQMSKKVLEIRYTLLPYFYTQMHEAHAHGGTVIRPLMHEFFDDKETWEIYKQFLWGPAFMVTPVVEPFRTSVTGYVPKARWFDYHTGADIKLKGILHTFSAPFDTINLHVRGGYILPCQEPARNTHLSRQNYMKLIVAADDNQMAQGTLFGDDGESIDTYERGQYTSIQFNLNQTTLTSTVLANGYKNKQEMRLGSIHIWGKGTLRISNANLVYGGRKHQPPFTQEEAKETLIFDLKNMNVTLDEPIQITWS
Procedure: (2) A crude enzyme preparation of α-glucosidase from rat small intestine mucous membrane [prepared according to the method as described in Arne Dahlqvist, Anal. Biochem., 7:18-25 (1964)] was used to measure the activity of inhibiting α-glucosidase of DGE as follows.
For the enzymatic reaction, 80 μl of a solution of sucrose, maltose, treharose or soluble starch as a substrate in 10 mM phosphate buffer (pH 7.0) buffer at a final concentration of 100 mM (0.5% for soluble starch) was added to 10 μl of a test sample solution appropriately diluted with the same buffer. 10 μl of the crude enzyme solution prepared from rat small intestine was added thereto. The mixture was reacted at 37° C. for 20 minutes.
The enzymatic reaction was assessed by adding 3 ml of a reagent for glucose measurement (Wako Pure Chemical Industries) to the reaction mixture, reacting at 37° C. for 5 minutes and then measuring the absorbance at 505 nm as the glucose content in the mixture.
The inhibitory activity of DGE on the digestion of each substrate by α-glycosidase was measured using DGE at four different concentrations according to the above-mentioned method. The activity of inhibiting α-glycosidase was expressed as a relative activity (%) defining the activity of the control without DGE as 100%.

[2] = system: inducible NO synthase (iNOS); assay: iNOS expression (RT-PCR, Western blotting); format: cell-based; conditions: RAW264.7 cells cultured for 4, 6 or 8 hours
Procedure: The present inventors have confirmed that the compound of formula (I), the compound of formula (II) and salts thereof inhibit the expression of iNOS. The confirmation was carried out at protein level by using Western blotting and at messenger RNA level by using RT-PCR. […] Therefore, the compound is effective in treating and preventing diseases that require inhibition of NO production for their treatment and prevention.
RNA was prepared from RAW264.7 cells cultured for 4, 6 or 8 hours under conditions similar to those described above. The amount of mRNA encoding inducible NO synthase [iNOS; Biochem. Byophys. Res. Commun., 215:148-153 (1995)] contained in the RNA was determined by the RT-PCR method.

HL-60 cells = assay: Antiproliferation activity against tumor cells (MTT, absorbance at 590 nm); format: cell-based
Procedure: The Samples 1 to 3 were separately sterilized by filtration and appropriately diluted with sterile water. 10 μl of each dilution was placed in a well of a 96-well microtiter plate. 90 μl of RPMI 1640 medium (Nissui) containing 10% fetal bovine serum (Gibco), which had been treated at 56° C. for 30 minutes, and 5,000 HL-60 cells (ATCC CCL-240) was added thereto. The plate was incubated at 37° C. for 48 hours in the presence of 5% CO2. The cell morphology was examined under an optical microscope. 10 μl of 5 mg/ml 3-(4,5-dimethylthiazol-2-yl)-2,5-diphenyltetrazolium bromide (Sigma) solution in phosphate buffered saline was further added thereto and the incubation was continued for additional 4 hours. 100 μl of 2-propanol containing 0.04 N HCl was added to the well and the mixture was thoroughly stirred. The absorbance at 590 nm was measured to determine the cell growth level.

O=C1C=CC(CO)OC1O [DGE, L-glycero-1,5-epoxy-1αβ,6-dihydroxy-cis-hex-3-en-2-one]
inhibitory activity against lymphocyte proliferation activated by stimulation with mitogen (spleen lymphocytes; Con A): in a dose-dependent manner | concentration that almost completely inhibits the proliferation (spleen lymphocytes; Con A-stimulated spleen lymphocytes): 0.3 µg/mL | Remaining activity (α-glucosidase from yeast; DGE added 5 μM): 98% | Absorbance (OD 410 nm) (α-glucosidase from yeast; DGE added 5 μM): 0.433 | Remaining activity (α-glucosidase from yeast; DGE added 50 μM): 90% | Absorbance (OD 410 nm) (α-glucosidase from yeast; DGE added 50 μM): 0.401 | Remaining activity (α-glucosidase from yeast; DGE added 500 μM): 50% | Absorbance (OD 410 nm) (α-glucosidase from yeast; DGE added 500 μM): 0.221 | Remaining activity (α-glucosidase from yeast; DGE added 1000 μM): 26% | Absorbance (OD 410 nm) (α-glucosidase from yeast; DGE added 1000 μM): 0.114 | Remaining activity (α-glucosidase from yeast; DGE added 5000 μM): 19% | Absorbance (OD 410 nm) (α-glucosidase from yeast; DGE added 5000 μM): 0.083 | IC50 (α-glucosidase from yeast; substrate p-nitrophenyl-α-D-glucopyranoside, read-out: concentration of DGE that inhibits α-glucosidase activity by 50% (IC50)): 0.5 mM | activity of inhibiting α-glycosidase with sucrose as a substrate compared with maltose or the like [1]: exhibited a higher activity of inhibiting α-glycosidase | Ki ([1]; for sucrose, Dixon plot, read-out: inhibition constant (Ki)): 6 mM | relative activity ([1]; DGE 0.2 mM): 91% | relative activity ([1]; DGE 0.5 mM): 92% | relative activity ([1]; DGE 1.0 mM): 83% | relative activity ([1]; DGE 2.0 mM): 71% | amplification of a DNA fragment from the iNOS mRNA [2]: no amplification of the fragment was observed

5-L-glutathion-S-yl-2-hydroxy-3,7-dioxabicyclo[2.2.2]octan-1-ol [DGE-GSH]
antiproliferation activity against tumor cells (HL-60 cells; 48 hours, absorbance at 590 nm): inhibition of cell growth | GI50, the concentration that results in 50% growth inhibition (HL-60 cells; half absorbance at 590 nm compared with water control): about 48.7 μg/ml | formation of apoptotic bodies (HL-60 cells; optical microscope): apoptotic bodies were observed
